Measurements reported in patent US20040247604A1, “Anti-inflamatory fatty alcohols and fatty acid esters useful as antigen carriers” (priority 2001, published 2004).
“And” between values parts separate entries of the source, which are not always exact repeats. Equal values may be shown once.

System: adjuvant arthritis
Assay: Protection against adjuvant arthritis (AA): inhibition of joint inflammation
Assay type: in vivo, Lewis rats
Settings: for % Inhibition of inflammation of adjuvant arthritis: 100 μl, subcutaneously once (14 days before or day 12 after induction of AA), day of maximal inflammation; for inflammation suppressed on day of peak disease: day 26

Row | Molecule | % Inhibition of inflammation of adjuvant arthritis (Lewis rats) | other results
1 | CCCCCCCCCCCCCCCCO [Cetyl alcohol] | 66% | 
2 | CCCCCCCC/C=C\CCCCCCCC(=O)OCC [Ethyl oleate] | 92% | 
3 | CCCCCCCC/C=C\CCCCCCCC(=O)OCC(O)CO (stereo not shown) [Glycerol mono-oleate] | 98% | 
4 | CCC=CCC=CC/C=C\CCCCCCCCO [Linolenyl alcohol, cis-9,12,15-octadecatrienol] | 75% | 
5 | CCCCCCCC/C=C\CCCCCCCC(=O)OC [Methyl oleate] | 76% | 
6 | CCCCCCCC/C=C\CCCCCCCCO [Oleyl alcohol, cis-9-octadecenol] | 78%-96% | inflammation suppressed on day of peak disease (10 μl SC once 14 days before induction of AA): 14%; inflammation suppressed on day of peak disease (50 μl SC once 14 days before induction of AA): 61%; inflammation suppressed on day of peak disease (100 μl SC once 14 days before induction of AA): 78%; inflammation suppressed on day of peak disease (500 μl SC once 14 days before induction of AA): 90%; suppression of the inflammation (500 μl oleyl alcohol, two further experiments, Lewis rats): 96% and 91%
7 | CCCCCCCC/C=C\CCCCCCCC(=O)O [oleic acid, cis-9-octadecenoic acid, reference compound] | no effect | 
8 | Mannose monooleate | 95% | 
